In PubChem BioAssay (NCI) one finds TGI data, which are given here for eight compounds.

Some test systems named below: ACHN renal; COLO 205 colon; EKVX NSCLC; HL-60(TB) leukemia; HOP-62 NSCLC; HS 578T breast; KM12 colon; MDA-N; NCI-H226 lung; NCI-H460 lung; NCI/ADR-RES ovarian; OVCAR-4 ovarian; OVCAR-5 ovarian; PC-3 prostate; SF-268 CNS; SK-MEL-28 melanoma; SR leukemia; T-47D breast; BT-549 breast.
Test in all cases: NCI-60 cell line screen, 48 h

Each structure is given as a SMILES string.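 The compound was tested at five concentrations on cells cultured in 96-well plates, with a 48-hour exposure period. TGI is the concentration that stops growth completely.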 Some results are limits rather than exact numbers.

In the case of `CC1C/C(=C\c2ccc(OC(=O)C(C)(C)C)cc2)C(=O)/C(=C/c2ccc(OC(=O)C(C)(C)C)cc2)C1` (configuration not stated), the TGI in the test with ACHN renal was greater than 100 µM; with COLO 205 colon, greater than 100 µM; with EKVX NSCLC, greater than 100 µM; in the test with HL-60(TB) leukemia it was 62.3 µM; in the test on HOP-62 NSCLC, greater than 100 µM; in the test on HS 578T breast it was greater than 100 µM. In addition, the TGI in the test on KM12 colon was greater than 100 µM; in the test with MDA-N, greater than 100 µM; in the test with NCI-H226 lung, 71 µM; with NCI-H460 lung, greater than 100 µM; in the test on NCI/ADR-RES ovarian, greater than 100 µM; in the test on OVCAR-4 ovarian it was greater than 100 µM. Further, the TGI in the test with OVCAR-5 ovarian, in the test on PC-3 prostate, with SF-268 CNS, with SK-MEL-28 melanoma, with SR leukemia and in the test on T-47D breast was greater than 100 µM each time.
Turning to `O=C(CC(C(=O)c1cccs1)c1cccs1)c1ccsc1` (configuration not stated), the TGI in the test with ACHN renal is greater than 100 µM; in the test with COLO 205 colon it was greater than 100 µM; in the test with EKVX NSCLC it was greater than 100 µM; with HL-60(TB) leukemia, 95 µM; with HOP-62 NSCLC it was greater than 100 µM; in the test on HS 578T breast it was greater than 100 µM. Besides, the TGI in the test with KM12 colon was greater than 100 µM; with MDA-N it was 46.4 µM; in the test on NCI-H226 lung, greater than 100 µM; with NCI-H460 lung, greater than 100 µM; in the test with NCI/ADR-RES ovarian, greater than 100 µM; in the test on OVCAR-4 ovarian, greater than 100 µM. For the same compound, the TGI in the test with OVCAR-5 ovarian, in the test with PC-3 prostate, in the test on SF-268 CNS, in the test on SK-MEL-28 melanoma, in the test on SR leukemia and in the test with T-47D breast was greater than 100 µM each time.
On to `O=C1c2ccccc2C(=O)N1CC1S(=O)(=O)OCCOS1(=O)=O`, for which the TGI in the test with ACHN renal, in the test on COLO 205 colon, with EKVX NSCLC, in the test with HL-60(TB) leukemia, in the test on HOP-62 NSCLC and with HS 578T breast was greater than 100 µM each time. The TGI in the test with MDA-N, with NCI-H226 lung, with NCI-H460 lung, in the test with NCI/ADR-RES ovarian, with OVCAR-4 ovarian and in the test with OVCAR-5 ovarian was greater than 100 µM throughout. For the same compound, the TGI in the test on PC-3 prostate, with SF-268 CNS, in the test on SK-MEL-28 melanoma, in the test with SR leukemia and in the test on T-47D breast was greater than 100 µM in each case.
As to `COc1ccc(/C=C2\CN(C)C/C(=C\c3ccc(OC)cc3)C2=O)cc1`, the TGI in the test on ACHN renal, in the test with COLO 205 colon, in the test on EKVX NSCLC, in the test on HL-60(TB) leukemia, in the test on HOP-62 NSCLC and in the test on HS 578T breast was greater than 100 µM throughout. For the same compound, the TGI in the test with KM12 colon, in the test on MDA-N, in the test with NCI-H226 lung, in the test on NCI-H460 lung, in the test on NCI/ADR-RES ovarian and with OVCAR-4 ovarian was greater than 100 µM in each case. Besides, the TGI in the test on OVCAR-5 ovarian, in the test with PC-3 prostate, in the test on SF-268 CNS, in the test with SK-MEL-28 melanoma, in the test with SR leukemia and with T-47D breast was greater than 100 µM throughout.
For `Cc1ccc(N2C(=O)C=C(C3=C(O)C(=O)N(c4ccc(C)cc4)C3=O)C2=O)cc1`, the TGI in the test on ACHN renal, with BT-549 breast, with COLO 205 colon, in the test on EKVX NSCLC, in the test with HL-60(TB) leukemia and in the test with HOP-62 NSCLC was greater than 100 µM throughout. Besides, the TGI in the test with MDA-N, in the test on NCI-H226 lung, with NCI-H460 lung, with NCI/ADR-RES ovarian, in the test on OVCAR-4 ovarian and with OVCAR-5 ovarian was greater than 100 µM throughout. For the same compound, the TGI in the test on PC-3 prostate, in the test with SF-268 CNS, in the test on SK-MEL-28 melanoma, with SR leukemia and in the test with T-47D breast was greater than 100 µM in each case.
As for `CC(C)(Oc1ccccc1)C(=O)Sc1c(-c2ccccc2)c(=O)n(-c2ccccc2)c(=S)n1-c1ccccc1`, the TGI in the test with ACHN renal is greater than 100 µM; with COLO 205 colon, greater than 100 µM; in the test on EKVX NSCLC, greater than 100 µM; in the test on HL-60(TB) leukemia, 64.7 µM; in the test with HOP-62 NSCLC it was 52.8 µM; with HS 578T breast, 85.4 µM. Moreover, the TGI in the test with KM12 colon is 64.7 µM; in the test on MDA-N, greater than 100 µM; in the test on NCI-H226 lung, greater than 100 µM; in the test with NCI-H460 lung it was 67.3 µM; in the test with NCI/ADR-RES ovarian, greater than 100 µM; in the test on OVCAR-4 ovarian it was greater than 100 µM. Moreover, the TGI is greater than 100 µM in the test on OVCAR-5 ovarian; 80.2 µM in the test with SF-268 CNS; greater than 100 µM in the test on SK-MEL-28 melanoma; 57.8 µM in the test with SR leukemia; greater than 100 µM in the test on T-47D breast.
On to `Cc1n[nH]c(=O)n1/N=C/c1ccc(F)cc1`, for which the TGI in the test with ACHN renal, in the test with BT-549 breast, in the test with COLO 205 colon, in the test on EKVX NSCLC, in the test with HOP-62 NSCLC and in the test on KM12 colon was greater than 100 µM in each case. For the same compound, the TGI in the test with MDA-N, with NCI-H460 lung, with NCI/ADR-RES ovarian, in the test with OVCAR-4 ovarian, in the test on OVCAR-5 ovarian and with SF-268 CNS was greater than 100 µM in each case. The TGI in the test on SK-MEL-28 melanoma, in the test on SR leukemia and in the test on T-47D breast was greater than 100 µM throughout.
With `CC[C@H](Nc1c(O)c2c(c(O)c1Cl)C(=O)C=CC2=O)C(=O)OC`, the TGI in the test with ACHN renal was greater than 10 µM; in the test on BT-549 breast it was greater than 10 µM; in the test with COLO 205 colon it was greater than 10 µM; in the test with EKVX NSCLC, greater than 10 µM; in the test with HL-60(TB) leukemia, 8.64 µM; in the test on HOP-62 NSCLC it was greater than 10 µM. Besides, the TGI in the test on HS 578T breast, in the test on KM12 colon, in the test with MDA-N, in the test with NCI-H226 lung, in the test with NCI-H460 lung and with NCI/ADR-RES ovarian was greater than 10 µM each time. The TGI in the test with OVCAR-4 ovarian was greater than 10 µM; in the test on OVCAR-5 ovarian it was greater than 10 µM; with PC-3 prostate, greater than 10 µM; in the test with SF-268 CNS, greater than 10 µM; in the test with SR leukemia it was 7.74 µM.
